# From patent publication EP0199524B1, “Platinum tramine antitumor agents” (ENGELHARD CORPORATION, priority 1985, dated 1986)
# Values joined by “and” are separate entries in the source; they are usually repeats but may differ in a detail not shown here. Identical values can stand only once.
# Tests used:
# S180 ascites = assay: Screening for anti-tumor activity against S180 ascites (S180a) in mice; format: in vivo, female CFW Swiss mice; details: for 30-Day Survivors / %ILS: medium H2O; for 30-Day Survivors: survivors/mice in set; for %ILS: injected day 1, S180a in mice, upper limit 100%
# Protocol: The compounds were evaluated for anti-tumor activity against S180 ascites in female CFW Swiss mice by the following procedure: CFW mice, averaging 20g, are immediately inspected and placed in newly prepared cages. On day zero the mice are inoculated with 0.2 ml. of a freshly prepared saline suspension (0.15 M NaCl) containing 1 x 10⁷ tumor cells/ml, or a total of 2 x 10⁶ cells. This inoculum is freshly prepared using "transfer" mice which have been injected with tumor cells the previous week. This inoculum is the end-product of a series of steps which involves (1) the removal of the cells from the peritoneal cavity of the sacrificed transfer mouse, (2) alternate centrifugation-washing (2-3 times with cold saline) to remove occasional blood and other undesirable components, and finally (3) dilution (1:3) of the packed cell volume with saline (the final centrifugation being carried out at 1,000 rpm for 2 min.). A cell count is made on a 2,000-fold dilution of this 1:3 suspension by means of a Coulter Counter. A final dilution to 1 x 10⁷ cells/ml. is made based on the averaged count. On day 1, solutions of the test compounds are prepared and the mice injected, with each mouse of a set of six being injected with the same test compound at the same dose level.
# ILS values above 50% represent significant activity; those above 75% represent excellent activity.
# [1] = literature statement on charged platinum species; cited from earlier work
# [2] = 8 mg/kg in saline, positive control run with each experiment, S180a in mice
SMILES,"30-Day Survivors (S180 ascites; Dose 10 mg/kg, S180a in mice)","30-Day Survivors (S180 ascites; Dose 20 mg/kg, S180a in mice)","30-Day Survivors (S180 ascites; Dose 40 mg/kg, S180a in mice)","30-Day Survivors (S180 ascites; Dose 80 mg/kg, S180a in mice)","30-Day Survivors (S180 ascites; Dose 160 mg/kg, S180a in mice)","30-Day Survivors (S180 ascites; Dose 320 mg/kg, S180a in mice)",%ILS (S180 ascites; Dose 320 mg/kg),%ILS (S180 ascites; Dose 10 mg/kg),%ILS (S180 ascites; Dose 20 mg/kg),%ILS (S180 ascites; Dose 160 mg/kg),%ILS (S180 ascites; Dose 40 mg/kg),%ILS (S180 ascites; Dose 80 mg/kg),other results
"N.N.[Cl-].[Cl][Pt+].c1ccncc1 [Example 1, Cis-Chlorodiamminepyridineplatinum(II) Chloride]",0/6,1/6 and 0/6,4/6 and 6/6,0/6 and 4/6,0/6,0/7,-94%,,,,,,"30-Day Survivors (S180 ascites; Dose 5 mg/kg, S180a in mice): 0/6; %ILS (S180 ascites; Dose 5 mg/kg, 5 mg/kg): 19%; %ILS (S180 ascites; Dose 20 mg/kg, 20 mg/kg): 73% and 70%; %ILS (S180 ascites; Dose 40 mg/kg, 40 mg/kg): 91% and 100%; %ILS (S180 ascites; Dose 40 mg/kg, listed as Cis-[Pt(NH₃)₂(py)Cl]Cl, 40 mg/kg): 100%"
"N.N.Oc1ccccn1.[Cl-].[Cl][Pt+] [Example 2, Cis-Chlorodiammine-2-hydroxypyridineplatinum(II) Chloride]",0/6,0/6,4/6 and 2/6,4/6 and 2/6,3/6,0/6,-74%,15%,28%,64%,,,"30-Day Survivors (S180 ascites; Dose 5 mg/kg, S180a in mice): 0/6; %ILS (S180 ascites; Dose 5 mg/kg): 15%; %ILS (S180 ascites; Dose 40 mg/kg, 40 mg/kg): 95% and 78%; %ILS (S180 ascites; Dose 80 mg/kg, 80 mg/kg): 91% and 80%; 30-Day Survivors (S180 ascites; Dose 640 mg/kg, S180a in mice): 0/6; %ILS (S180 ascites; Dose 640 mg/kg): -77%; 30-Day Survivors (S180 ascites; Dose 1280 mg/kg, S180a in mice): 0/6; %ILS (S180 ascites; Dose 1280 mg/kg): -84%"
"Cc1cccc(O)[n+]1[Pt-2]([NH3+])([NH3+])[Cl].[Cl-] (stereo not drawn) [Example 3, Cis-Chlorodiammine-6-methyl-2-hydroxypyridineplatinum(II) Chloride]",0/6,0/6,0/6,0/6,5/6,3/6,93%,-9%,-6%,93%,12%,15%,
"[Cl-].[NH3+][Pt-2]([NH3+])([Cl])[n+]1cccc(O)c1 (stereo not drawn) [Example 4, Cis-chlorodiammine-3-hydroxypyridineplatinum(II) Chloride]",0/6,0/6,0/6,1/6,1/6,0/6,-75%,5%,10%,-8%,54%,69%,
"Cc1cc[n+]([Pt-2]([NH3+])([NH3+])[Cl])cc1.[Cl-] (stereo not drawn) [Example 5, Cis-chlorodiammine-4-methylpyridineplatinum(II)chloride]",0/6,1/6,2/6,1/6,0/6,0/6,-91%,5%,27%,-77%,83%,66%,
"N.N.Nc1cc[nH]c(=O)n1.[Cl-].[Cl][Pt+] [Example 6, Cis-chlorodiamminecytosineplatinum(II) chloride]",,0/6,1/6,4/6,3/6,2/6,-16%,,23%,68%,58%,92%,"30-Day Survivors (S180 ascites; Dose 640 mg/kg, S180a in mice): 0/6; %ILS (S180 ascites; Dose 640 mg/kg): -74%"
"Cc1ccc(O)c[n+]1[Pt-2]([NH3+])([NH3+])[Cl].[Cl-] (stereo not drawn) [Example 7, Cis-chlorodiammine-6-methyl-3-hydroxypyridineplatinum(II) chloride]",,0/6,2/6,4/6,3/6,0/6,-49%,,30%,82%,70%,93%,"30-Day Survivors (S180 ascites; Dose 640 mg/kg, S180a in mice): 0/6; %ILS (S180 ascites; Dose 640 mg/kg): -75%"
"[Cl-].[NH3+][Pt-2]([NH3+])([Cl])[n+]1ccc(Cl)cc1 (stereo not drawn) [Example 8, Cis-chlorodiammine-4-chloropyridineplatinum(II) chloride]",0/6,2/6,4/6,4/6,0/6,0/6,-94%,22%,68%,-77%,77%,36%,
"N.N.[Cl-].[Cl][Pt+].c1ccncc1 [Example 18, Trans-Chlorodiamminepyridineplatinum(II) Chloride]",0/6,0/6,0/6,0/6,0/6,,,,,,,,"30-Day Survivors (S180 ascites; Dose 5 mg/kg, S180a in mice): 0/6; %ILS (S180 ascites; Dose 5 mg/kg, 5 mg/kg): 2%; %ILS (S180 ascites; Dose 10 mg/kg, 10 mg/kg): 7%; %ILS (S180 ascites; Dose 20 mg/kg, 20 mg/kg): 6%; %ILS (S180 ascites; Dose 40 mg/kg, 40 mg/kg): 15%; %ILS (S180 ascites; Dose 80 mg/kg, 80 mg/kg): 26%; %ILS (S180 ascites; Dose 160 mg/kg, 160 mg/kg): -70%"
"[Cl-].[Cl][Pt-2]1([n+]2ccccc2)[NH2+]C2CCCCC2[NH2+]1 (centres unmarked) [Example 19, Chloro-1,2-diaminocyclohexanepyridineplatinum(II) chloride]",0/6,0/6,0/6,0/6,0/6,0/6,-94%,6%,8%,25%,6%,15%,
[Cl][Pt-2]([Cl])([Cl])[Cl].[K+].[K+] [K₂PtCl₄],,,,,,,,,,,,,antitumor activity [1]: completely inactive
N.N.N.N.[Cl][Pt][Cl] [[Pt(NH₃)₄]Cl₂],,,,,,,,,,,,,antitumor activity [1]: completely inactive
"N.N.[Cl][Pt][Cl] [cis-[Pt(NH3)2Cl2], cis-diamminedichloroplatinum(II), reference compound]",,,,,,,,,,,,,Positive Control 30-Day Survivors (S180 ascites; [2]): 2/6 and 4/6 and 1/6 and 3/6 and 2/7; Positive Control %ILS (S180 ascites; [2]): 79% and 66% and 80% and 94% and 73% and 72% and 98%; optimum activity (dose) (S180 ascites; under identical screening): 9 to 10 mg/kg
